Results on one compound are retold here after paper PMC10794885 (RSC Advances, 2024).

The nature of the data set: Stability in simulated intestinal fluid. The data set is classed as physicochemical.

As usually defined, the half-life is the time in which the quantity being followed falls by half. High values mean slow loss, low ones fast loss. In the case of `CC[C@H]1OC(=O)[C@H](C)[C@@H](O[C@H]2C[C@@](C)(OC)[C@@H](O)[C@H](C)O2)[C@H](C)[C@@H](O[C@@H]2O[C@H](C)C[C@H](N(C)C)[C@H]2O)[C@](C)(O)C[C@@H](C)C(=O)[C@H](C)[C@@H](O)[C@]1(C)O` [erythromycin], the half-life is 7.97 h.
